Experiment [1] concerns canine glioma (CG) cells. In words: cell surface oligosaccharide display of canine glioma cells (lectin binding, Scatchard, Gibb's Free Energy). Type of experiment: cell-based. Conditions: control 14.9 kcal. The source says:
Taken together these affinity differences account for almost 10 kcal of additional binding energy retrievable from interactions in the case of the IMR-90s which is unavailable to the CGs. […] This treatment regimen results in an increase in the Tg of the cells as well as changes in the proton linewidth of unfrozen water (shown below). […] This display more closely resembles that of the growth regulated IMR-90s. It should be noted that the actual lines on these figures are visual estimates however, the data in the boxes are calculated values. It is these values that are used to estimate the GFE for comparison purposes.
The cell surface oligosaccharide display was assessed by methods developed previously. In brief, cells from a sub-culturing were aliquotted into 96 well trays at 5×10^5 cells per ml, 100 μL aliquots. After 16 hours of culture the cells were washed, fixed, and blocked with 0.1% BSA/PBS. Optimal lectin concentrations (5 μg/ml)were used to give 80 to 90% saturation of the available sites. Three carbohydrate ligands at 10 μg concentrations in triplicate or quadruplicate were then used to prepare competition curves for the lectin binding. The Bound over Free (B/F) ratio was calculated and the Ligand microprocessor program was used to determine the optimal fit of the data to a polynomial generated model. The Gibb's Free Energy (GFE) was calculated from the Scatchard data on the competition assay by the following equation: GFE=-RT 1n Kequit. The proton NMR linewidth measurements were conducted as described previously.

In experiment [2] the test system is B16 melanoma cells. Kind of experiment: effect of swainsonine on B16 melanoma solid tumor growth. Type of experiment: in vivo, mouse. To be noted: for inhibition of B16 growth: 1.0, 0.01 and 0.001 μg Sw (p<0.5). As for the experimental part:
The B16 melanoma cells were purchased from American Type Culture Collection (ATCC). They were maintained in complete A-MEM (SIGMA) (with 10% fetal calf serum (FCS) (Sigma), 100 U/ml penicillin (Sigma), 100 μg/ml streptomycin (Sigma) and 2 mM utamine (Sigma)) in Corning 75 cm^2 straight necked flasks (T75) and grown with 5.5% CO2 in air with 95% humidity in a New Brunswick Scientific water jacketed incubator. […] They were harvested using 1× Trypsin-EDTA (Sigma), centrifuged at 100×g with a Beckman TJ6 centrifuge, counted using a hemocytometer and stained with trypan blue to determine viability. The cells used for injection into the mice were washed three times in phosphate buffered saline (PBS), counted and resuspended in PBS at a final concentration of 6×10^6 cells per ml.
The swainsonine, purchased from Boehringer Mannheim, was initially suspended in PBS at 100 μg/ml. Subsequent dilutions utilized in the following experiments were made in PBS.
Fifteen female C57B1/6 mice (6 weeks old, from Harlan Sprague Dawley Laboratories) were treated 3 times per week on a Monday-Wednesday-Friday (MWF) schedule for three weeks prior to the injection of the 6×10^5 B16 melanoma cells. The treatment consisted of 0.1 ml (total volume) intraperitoneal injections of swainsonine in the mornings before 9:00 am. The treatment groups were as follows:
The MWF treatment with the swainsonine continued after the tumor cell injection until the termination of the study. Once the tumor was palpable, electronic calipers were used to measure the length (l), width (w) and depth (d) of the tumor. The volume of the tumor was then determined by V=πr^2 ×d, with the assumption that the tumor is a […], then r=(l+w)/4.
The effect of swainsonine on the growth of B16 melanoma solid tumors in vivo was investigated by pretreating the mice for 3 weeks and then injecting melanoma cells into the right shoulder area. Palpable tumors in the control group (0.0 μg Sw) were present on day 5 post tumor cell injection. These tumors were the size of a grain of rice and could not be accurately measured. FIG. 66 graphically presents tumor growth rate versus time. Tumors whose size could be reliably measured were present on day 7 in the controls (Table I). […] This was a delay of two day in both instances. The 0.1 μg Sw slowed growth of the melanoma tumor. The tumors in the 0.1 μg Sw group were 74% (p=0.03) smaller in size on day 9 compared to the controls and 68% (p=0.003) smaller on day 11.

Experiment [3] concerns B16 melanoma cells. Kind of experiment: effect of swainsonine on cytotoxic T-lymphocytes (51Cr release). The class given is in vivo, mouse. On the procedure: The cytotoxicity assay used two targets: YAC-1, for natural killer cell targets and B16 melanoma cells, for cytolytic T-cell targets. The YAC-1 cells were labelled in GKN (ucose/KCl/NaCl) with ^51 Cr (NEN-DuPont, 400-1200 Ci/g activity) for 60 min. The B16's were ^51 Cr labelled in complete α-MEM media for 60 min. Both targets were washed twice through whole fetal calf serum to remove damaged and dead cells and then suspended in complete RPMI at a final concentration of 1×10^5 cells/ml. The spleen cells (effector cells) were plated in round bottom 96 well trays starting at 1×10^7 cells/ml (100 μl/well), using a halving dilution that provided splenocyte concentrations of 10^6, 5×10^5, 2.5×10^5, 1.25×10^5, 6.25×10^4 and 3.125×10^4, all done in triplicate. The target cells were added at 1×10^4 cell/100 μl/well; this gave an effector:target cell ratio ranging from 100:1 to 3:1. Controls included spontaneous ^51 Cr release and 100% lysis (10% triton treatment). The trays were centrifuged at 50×g for 5 min. and incubated in a CO2 incubator at 37° C. for 16 hours. The trays were spun again at 50×g for 5 minutes and 100 μl removed from each well for counting. A Packard gamma counter (United Technologies) was used for counting. Each sample was counted for 1 min. giving a 5% counting efficiency. The following equation was used to determine percent lysis.
The effector:target ratios were then plotted against percent lysis and a simple line equation was determined for each treatment group. The slope of this line was then used to determine the total effector kill efficiency.
The ^51 Cr cytotoxicity assay was also run with the B16 melanoma cells as the target and the splenocytes from the same mice as above as the effector cells. The baseline mice (no tumor/no Sw) and the control mice (tumor/no SW) had very similar line shapes and slopes. There were significant differences (p=0.03) between the presence and absence of tumor (see Table in FIG. 68).

In experiment [4] the test system is lymphoid IL-2R / LAK. Conditions: Bowlin et al. and further work; listed as Sw; cited from earlier work.
Experiment [5] deals with plaque forming cells. Conditions: cited from earlier work.
Experiment [6] concerns solid tumor models. To be noted: Dennis 1986, 1989, 1990; cited from earlier work.

Entries after “also recorded” stand apart in the source; their conditions may differ.

Consider `O[C@H]1[C@H]2[C@H](O)CCCN2C[C@H]1O` [Swainsonine, swainsonine], for which the entries for the “Gibb's Free Energy” value in experiment [1] (2 cycles), in experiment [1] (4 cycles) and in experiment [1] (7 cycles) were 15.2 kcal, 20.5 kcal and 21.9 kcal, respectively. In addition, the “delay of onset of tumor growth” value in experiment [2] (0.1 μg Sw) is “two”. In addition, the “tumor size reduction versus control” value in experiment [2] (0.1 μg Sw, day 9, p=0.03) is given as 74%; in experiment [2] (0.1 μg Sw, day 11, p=0.003), 68%. The “first day of palpable tumors” value in experiment [2] (0.1 μg Sw, control day 5) worked out at 7 days. Also, the “first day of measurable tumors” value in experiment [2] (0.1 μg Sw, control day 7) turned out to be 9 days. Further, the effect on growth entry in experiment [2] (1.0 μg Sw) is given as “causes enhanced growth”. Besides, the results for the “inhibition of B16 growth” value in experiment [2] and in experiment [2] (listed as Sw) were “no effect on delaying growth” and “less effective at inhibiting the B16 growth”, respectively. The “CTL activity in words” value in experiment [3] (0.1 μg Sw for 3 weeks, listed as Sw) was “greater than that of the control and of the 0.01 μg treated mice; also recorded: significant increase in the CTL activity”. In experiment [3] (0.1 μg Sw, day 7 tumor), the “increase in line slope above baseline” value came to 228%. For the same compound, in experiment [3] (0.1 μg Sw, day 7 tumor), the “increase in line slope over control mice with day 7 tumor” value is reported as 127%. The “effect on IL-2R expression, IL-2 induced proliferation and LAK induction” value in experiment [4] is “augmented lymphoid IL-2R expression and IL-2 induced proliferation following mitogenic stimulation; also recorded: augmented the LAK induction at normally sub-optimal stimulation doses”. Also, the “PFC numbers, SW alone” value in experiment [5] (SW alone) is on record as “no changes in PFC numbers”. The “antibody formation after immunosuppressive factor” value in experiment [5] (Sw 3.7-100 mg/kg i.p. 5 days) is reported as “return to normal levels of antibody production”. Further, the “growth in other solid tumor models” value in experiment [6] was “delay growth in several other solid tumor models”.

The values above are taken from patent US5958966A, “Treatment of aberrant cellular states with biomodulators” (University of New Mexico, priority 1995, dated 1999).
